Assay results reported in patent publication US20250163037A1, “SUBSTITUTED ISOXAZOLINE DERIVATIVES” (BASF SE, priority 2022, published 2025).
Read-outs that look alike come from different tables or passages of the source.

Columns and labels:
Type in all cases: in vivo
[1] = system: Tobacco Budworm (Heliothis virescens); assay: B.3 Tobacco Budworm, microtiter plate with insect diet and eggs; settings: 120 h, egg and larval mortality after 5 days, read-out: mortality in comparison with untreated controls
Experimental: For evaluating control of Tobacco Budworm, the test unit consisted of 96-well-microtiter plates containing an insect diet and 15-25 H. virescens eggs. The compounds were formulated using a solution containing 75% v/v water and 25% v/v DMSO. Different concentrations of formulated compounds were sprayed onto the insect diet at 10 μl, using a custom-built micro atomizer, at two replications. After application, microtiter plates were incubated at about 28±1° C. and about 80±5% relative humidity for 5 days. Egg and larval mortality was then visually assessed.

[2] = system: Orchid Thrips (Dichromothrips corbetti); assay: B.6 Orchid Thrips, floral-immersion technique; settings: for B.6, 10 ppm: comparative experiment, test B.6 (percent mortality), unit not given; for mortality at 300 ppm: read-out: mortality in comparison with untreated controls
Experimental: Dichromothrips corbetti adults used for bioassay were obtained from a colony maintained continuously under laboratory conditions. For testing purposes, the test compound was diluted in a 1:1 mixture of acetone:water (vol:vol), plus Kinetic at a rate of 0.01% v/v.
Thrips potency of each compound was evaluated by using a floral-immersion technique. Each orchid petal was dipped into treatment solution and allowed to dry in Petri dishes. Treated petals were placed into individual re-sealable plastic along with about 20 adult thrips. All test arenas were held under dark condition and a temperature of about 28° C. for duration of the assay. The percent mortality was recorded 72 hours after treatment.

[3] = system: Diamond Back Moth (Plutella xylostella); assay: B.5 Diamond Back Moth, cabbage leaf disc dip; settings: for B.5, 10 ppm: comparative experiment, test B.5 (mortality), unit not given; for mortality at 300 ppm: Plutella xylostella, foliar, 3rd instar larvae, 72 hours after treatment, read-out: mortality in comparison with untreated controls
Experimental: The active compound was dissolved at the desired concentration in a mixture of 1:1 (vol:vol) distilled water:acetone. Surfactant (Kinetic) was added at a rate of 0.01% (vol/vol). The test solution was prepared at the day of use. Cabbage leaf discs (60 mm in diameter) were dipped in test solution and air-dried. Treated leaves were placed in petri dishes lined with moistened filter paper and inoculated with ten 3rd instar larvae. Mortality was recorded 72 hours after treatment. Feeding damages were also recorded using a scale of 0-100%.

[4] = system: Green Peach Aphid (Myzus persicae); assay: B.2 Green Peach Aphid (mixed life stages), systemic artificial diet under membrane; settings: 72 h, read-out: mortality in comparison with untreated controls
Source text: For evaluating control of Green Peach Aphid through systemic means the test unit consisted of 96-well-microtiter plates containing liquid artificial diet under an artificial membrane. The compounds were formulated using a solution containing 75% v/v water and 25% v/v DMSO. Different concentrations of formulated compounds were pipetted into the aphid diet, using a custom-built pipette, at two replications. After application, 5-8 adult aphids were placed on the artificial membrane inside the microtiter plate wells. The aphids were then allowed to suck on the treated aphid diet and incubated at about 23±1° C. and about 50±5% relative humidity for 3 days. Aphid mortality and fecundity was then visually assessed.

[5] = system: Yellow Fever Mosquito (Aedes aegypti); assay: whole plant or invertebrate; settings: 48 h, larval mortality after 2 days, read-out: mortality in comparison with untreated controls
Experimental: For evaluating control of Yellow Fever Mosquito, the test unit consisted of 96-well-microtiter plates containing 200 μl of tap water per well and 5-15 freshly hatched A. aegypti larvae. The active compounds were formulated using a solution containing 75% (v/v) water and 25% (v/v) DMSO. Different concentrations of formulated compounds or mixtures were sprayed onto the insect diet at 2.5 μl, using a custom-built micro atomizer, at two replications.
After application, microtiter plates were incubated at 28±1° C., 80±5% RH for 2 days. Larval mortality was then visually assessed.

[6] = system: Boll Weevil (Anthonomus grandis); assay: B.1 Boll weevil, microtiter plate with insect diet and eggs; settings: 120 h, egg and larval mortality after 5 days, read-out: mortality in comparison with untreated controls
Experimental: For evaluating control of boll weevil, the test unit consisted of 96-well-microtiter plates containing an insect diet and 5-10 A. grandis eggs.
The compounds were formulated using a solution containing 75% v/v water and 25% v/v DMSO. Different concentrations of formulated compounds were sprayed onto the insect diet at 5 μl, using a custom-built micro atomizer, at two replications.
After application, microtiter plates were incubated at about 25±1° C. and about 75±5% relative humidity for 5 days. Egg and larval mortality were then visually assessed.

[7] = system: Southern Armyworm (Spodoptera eridania); assay: B.7 Southern Armyworm, 2nd instar larvae, sprayed lima bean plants; settings: 96 h, 4 days after treatment, read-out: mortality in comparison with untreated controls
Experimental: The active compounds were formulated by a Tecan liquid handler in 100% cyclohexanone as a 10′000 ppm solution supplied in tubes. The 10′000 ppm solution was serially diluted in 100% cyclohexanone to make interim solutions. These served as stock solutions for which final dilutions were made by the Tecan in 50% acetone:50% water (v/v) into 10 or 20 ml glass vials. A nonionic surfactant (Kinetic®) was included in the solution at a volume of 0.01% (v/v). The vials were then inserted into an automated electrostatic sprayer equipped with an atomizing nozzle for application to plants/insects. Lima bean plants (variety Sieva) were grown 2 plants to a pot and selected for treatment at the 1st true leaf stage. Test solutions were sprayed onto the foliage by an automated electrostatic plant sprayer equipped with an atomizing spray nozzle. The plants were dried in the sprayer fume hood and then removed from the sprayer. Each pot was placed into perforated plastic bags with a zip closure. Ten to 11 armyworm larvae were placed into the bag and the bags zipped closed. Test plants were maintained in a growth room at about 25° C. and about 20-40% relative humidity for 4 days, avoiding direct exposure to fluorescent light (14:10 light:dark photo-period) to prevent trapping of heat inside the bags. Mortality and reduced feeding were assessed 4 days after treatment, compared to untreated control plants.

[8] = system: Silverleaf Whitefly (Bemisia argentifoli); assay: B.8 Silverleaf Whitefly (adults), sprayed cotton plants; settings: 72 h, 3 days after treatment, read-out: mortality in comparison with untreated controls
Experimental: The active compounds were formulated by a Tecan liquid handler in 100% cyclohexanone as a 10,000-ppm solution supplied in tubes. The 10,000-ppm solution was serially diluted in 100% cyclohexanone to make interim solutions. These served as stock solutions for which final dilutions were made by the Tecan in 50% acetone:50% water (v/v) into 5 or 10 ml glass vials. A nonionic surfactant (Kinetic®) was included in the solution at a volume of 0.01% (v/v). The vials were then inserted into an automated electrostatic sprayer equipped with an atomizing nozzle for application to plants/insects. Cotton plants at the cotyledon stage (one plant per pot) were sprayed by an automated electrostatic plant sprayer equipped with an atomizing spray nozzle. The plants were dried in the sprayer fume hood and then removed from the sprayer. Each pot was placed into a plastic cup and about 10 to 12 whitefly adults (approximately 3-5 days old) were introduced. The insects were collected using an aspirator and a nontoxic Tygon® tubing connected to a barrier pipette tip. The tip, containing the collected insects, was then gently inserted into the soil containing the treated plant, allowing insects to crawl out of the tip to reach the foliage for feeding. Cups were covered with a reusable screened lid. […] Mortality was assessed 3 days after treatment, compared to untreated control 5 plants.

[9] = 300 ppm, adult thrips, 72 hours after treatment
[10] = 2500 ppm, aphid mortality after 3 days

N#Cc1ccc(NC2=NOC(c3cc(Cl)cc(Cl)c3)(C(F)(F)F)C2)cc1-n1cncn1 (stereo not drawn) [I-1]
mortality at 2500 ppm [1]: ≥ 75% | B.6, 10 ppm [2]: 100 | mortality at 300 ppm [2, 9]: ≥ 75% | B.5, 10 ppm [3]: 100 | mortality at 300 ppm [3]: ≥ 75% | mortality at 2500 ppm [4, 10]: ≥ 75% | mortality at 2500 ppm [5]: ≥ 75% | mortality at 2500 ppm [6]: ≥ 75% | mortality at 300 ppm [7]: ≥ 75%

N#Cc1ccc(NC2=NOC(c3cc(Cl)c(F)c(Cl)c3)(C(F)(F)F)C2)cc1-n1cncn1 (stereo not drawn) [I-4, 4-[[5-(3,5-dichloro-4-fluoro-phenyl)-5-(trifluoromethyl)-4H-isoxazol-3-yl]amino]-2-(1,2,4-triazol-1-yl)benzonitrile]
mortality at 300 ppm [2, 9]: ≥ 75%

Fc1c(Cl)cc(C2(C(F)(F)F)CC(Nc3ccc(Cl)c(-n4cc(C(F)(F)F)cn4)c3)=NO2)cc1Cl (stereo not drawn) [I-14, N-[4-chloro-3-[4-(trifluoromethyl)pyrazol-1-yl]phenyl]-5-(3,5-dichloro-4-fluoro-phenyl)-5-(trifluoromethyl)-4H-isoxazol-3-amine]
mortality at 300 ppm [2, 9]: ≥ 75% | mortality at 300 ppm [8]: ≥ 75%

Fc1c(Cl)cc(C2(C(F)(F)F)CC(Nc3ccc(Cl)c(-n4cnc(C(F)(F)F)c4)c3)=NO2)cc1Cl (stereo not drawn) [I-16, N-[4-chloro-3-[4-(trifluoromethyl)imidazol-1-yl]phenyl]-5-(3,5-dichloro4-fluoro-phenyl)-5-(trifluoromethyl)-4H-isoxazol-3-amine]
mortality at 300 ppm [2, 9]: ≥ 75%

O=C(NCC(F)(F)F)c1cnn(-c2cc(NC3=NOC(c4cc(Cl)c(F)c(Cl)c4)(C(F)(F)F)C3)ccc2Cl)c1 (stereo not drawn) [I-18, 1-[2-chloro-5-[[5-(3,5-dichloro-4-fluoro-phenyl)-5-(trifluoromethyl)-4H-isoxazol-3-yl]amino]phenyl]-N-(2,2,2-trifluoroethyl)pyrazole-4-carboxamide]
mortality at 300 ppm [2, 9]: ≥ 75%

CCN(C1=NOC(c2cc(Cl)c(F)c(Cl)c2)(C(F)(F)F)C1)c1ccc(C#N)c(-n2cncn2)c1 (stereo not drawn) [I-20, 4-[[5-(3,5-dichloro-4-fluoro-phenyl)-5-(trifluoromethyl)-4H-isoxazol-3-yl]-ethyl-amino]-2-(1,2,4-triazol-1-yl)benzonitrile]
mortality at 300 ppm [2, 9]: ≥ 75%

COCN(C1=NOC(c2cc(Cl)c(F)c(Cl)c2)(C(F)(F)F)C1)c1ccc(Cl)c(-n2cc(C(F)(F)F)cn2)c1 (stereo not drawn) [I-23, N-[4-chloro-3-[4-(trifluoromethyl)pyrazol-1-yl]phenyl]-5-(3,5-dichloro-4-fluoro-phenyl)-N-(methoxymethyl)-5-(trifluoromethyl)-4H-isoxazol-3-amine]
mortality at 300 ppm [2, 9]: ≥ 75% | mortality at 300 ppm [3]: ≥ 75% | mortality at 300 ppm [7]: ≥ 75%

CCOC(=O)N(C1=NOC(c2cc(Cl)c(F)c(Cl)c2)(C(F)(F)F)C1)c1ccc(Cl)c(-n2cnc(C(F)(F)F)c2)c1 (stereo not drawn) [I-26, ethyl N-[4-chloro-3-[4-(trifluoromethyl)imidazol-1-yl]phenyl]-N-[5-(3,5-dichloro-4-fluoro-phenyl)-5-(trifluoromethyl)-4H-isoxazol-3-yl]carbamate]
mortality at 300 ppm ([2]; Thrips, 72 h): ≥ 75% | mortality at 2500 ppm [4]: ≥ 75%

Fc1c(Cl)cc(C2(C(F)(F)F)CC(Oc3ccc(Cl)c(-n4cncn4)c3)=NO2)cc1Cl (stereo not drawn) [I-27, 3-[4-chloro-3-(1,2,4-triazol-1-yl)phenoxy]-5-(3,5-dichloro-4-fluoro-phenyl)-5-(trifluoromethyl)-4H-isoxazole]
mortality at 2500 ppm [1]: ≥ 75% | mortality at 300 ppm [2, 9]: ≥ 75% | mortality at 2500 ppm [4, 10]: ≥ 75% | mortality at 2500 ppm [5]: ≥ 75% | mortality at 2500 ppm [6]: ≥ 75% | mortality at 300 ppm [7]: ≥ 75%

N#Cc1ccc(C2=NOC(c3cc(Cl)cc(Cl)c3)(C(F)(F)F)C2)cc1-n1cncn1 [WO2011/073444 Table 3937, No. D-539, reference compound]
B.6, 10 ppm [2]: 0 | B.5, 10 ppm [3]: 0

N#Cc1cnn(-c2cccc(C3=NOC(c4cc(Cl)cc(Cl)c4)(C(F)(F)F)C3)c2)c1 (stereo not drawn) [WO2011/073444 Table C.1, No. I-4, reference compound]
B.6, 10 ppm [2]: 0 | B.5, 10 ppm [3]: 0
